Like-named read-outs stand apart in the source and are kept apart here.
Molecular target: T1, human glucocorticoid receptor (GR) complex (Homo sapiens, UniProt P04150)
T1 construct: made in house; host or cells: insect expression system (baculovirus lysate)
T1 sequence (P04150 1-777): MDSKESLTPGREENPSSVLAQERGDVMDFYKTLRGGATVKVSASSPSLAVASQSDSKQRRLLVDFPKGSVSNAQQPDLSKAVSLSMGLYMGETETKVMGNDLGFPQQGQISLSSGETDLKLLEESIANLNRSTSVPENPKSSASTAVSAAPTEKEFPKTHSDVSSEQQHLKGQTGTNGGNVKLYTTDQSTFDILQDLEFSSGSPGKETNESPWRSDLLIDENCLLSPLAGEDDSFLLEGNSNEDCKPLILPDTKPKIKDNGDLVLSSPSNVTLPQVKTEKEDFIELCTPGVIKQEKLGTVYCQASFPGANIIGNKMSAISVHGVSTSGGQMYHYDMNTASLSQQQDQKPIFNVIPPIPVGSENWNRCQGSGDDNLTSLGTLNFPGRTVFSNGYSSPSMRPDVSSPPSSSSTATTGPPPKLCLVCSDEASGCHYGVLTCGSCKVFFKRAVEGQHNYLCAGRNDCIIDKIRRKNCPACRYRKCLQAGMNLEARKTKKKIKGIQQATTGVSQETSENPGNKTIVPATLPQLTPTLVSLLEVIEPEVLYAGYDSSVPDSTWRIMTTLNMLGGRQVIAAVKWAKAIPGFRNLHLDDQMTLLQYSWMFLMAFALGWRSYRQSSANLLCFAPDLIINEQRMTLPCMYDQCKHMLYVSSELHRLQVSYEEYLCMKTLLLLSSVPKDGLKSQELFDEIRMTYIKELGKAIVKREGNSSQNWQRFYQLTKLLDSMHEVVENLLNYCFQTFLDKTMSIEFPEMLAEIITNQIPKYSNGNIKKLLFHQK
Experiment: Glucocorticoid receptor fluorescence polarization competitive binding assay;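 also: GR complex expressed in an insect system, wells lacking compound give full signal, excess unlabeled dexamethasone defines the blank, IC50 from logistic curve fit of polarization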

[1] = Table 1, competition with TAMRA-labeled dexamethasone, read-out: GR IC50

| IC50 [1] | SMILES | IC50 |
| --- | --- | --- |
| 13 nM | CCCS(=O)(=O)c1cc2cc(CC(O)(CC(C)(C)c3cc(F)ccc3S(C)(=O)=O)C(F)(F)F)[nH]c2cn1 (stereo not drawn) [1,1,1-Trifluoro-4-(5-fluoro-2-methanesulfonylphenyl)-4-methyl-2-[5-(propane-1-sulfonyl)-1H-pyrrolo[2,3-c]pyridin-2-ylmethyl]pentan-2-ol] |  |
| 28 nM | CC(C)(C[C@@](O)(Cc1cc2cc(S(C)(=O)=O)ncc2[nH]1)C(F)(F)F)c1ccc(F)cc1S(C)(=O)=O [drawing 10, (R)-1,1,1-Trifluoro-4-(4-fluoro-2-methanesulfonylphenyl)-2-(5-methanesulfonyl-1H-pyrrolo[2,3-c]pyridin-2-ylmethyl)-4-methylpentan-2-ol] |  |
| 39 nM | CCS(=O)(=O)c1cc2cc(CC(O)(CC(C)(C)c3ccc(Cl)cc3S(C)(=O)=O)C(F)(F)F)[nH]c2cn1 (stereo not drawn) [drawing 15, 4-(4-Chloro-2-methanesulfonylphenyl)-2-(5-ethanesulfonyl-1H-pyrrolo[2,3-c]pyridin-2-ylmethyl)-1,1,1-trifluoro-4-methylpentan-2-ol] |  |
| 25 nM | CC(C)(CC(O)(Cc1cc2cc(S(C)(=O)=O)ncc2[nH]1)C(F)(F)F)c1cc(F)ccc1O (stereo not drawn) [4-Fluoro-2-[4,4,4-trifluoro-3-hydroxy-3-(5-methanesulfonyl-1H-pyrrolo[2,3-c]pyridin-2-ylmethyl)-1,1-dimethylbutyl]phenol] |  |
| 71 nM | CC(C)S(=O)(=O)c1cc2cc(CC(O)(CC(C)(C)c3cc(F)ccc3S(C)(=O)=O)C(F)(F)F)[nH]c2cn1 (stereo not drawn) [1,1,1-Trifluoro-4-(5-fluoro-2-methanesulfonylphenyl)-4-methyl-2-[5-(propane-2-sulfonyl)-1H-pyrrolo[2,3-c]pyridin-2-ylmethyl]pentan-2-ol] |  |
| 29 nM | CCS(=O)(=O)c1cc2cc(CC(O)(CC(C)(C)c3ccc(F)cc3S(C)(=O)=O)C(F)(F)F)[nH]c2cn1 (stereo not drawn) [drawing 16, 2-(5-Ethanesulfonyl-1H-pyrrolo[2,3-c]pyridin-2-ylmethyl)-1,1,1-trifluoro-4-(4-fluoro-2-methanesulfonylphenyl)-4-methylpentan-2-ol] |  |
| 6 nM | CC(C)(CC(O)(Cc1cc2cc(S(C)(=O)=O)ncc2[nH]1)C(F)(F)F)c1cc(F)ccc1Br (stereo not drawn) [4-(2-Bromo-5-fluorophenyl)-1,1,1-trifluoro-2-(5-methanesulfonyl-1H-pyrrolo[2,3-c]pyridin-2-ylmethyl)-4-methylpentan-2-ol] |  |

Continued, compound first:

| SMILES | IC50 [1] | IC50 |
| --- | --- | --- |
| CCS(=O)(=O)c1cc2cc(CC(O)(CC(C)(C)c3ccc(C)cc3C(N)=O)C(F)(F)F)[nH]c2cn1 (stereo not drawn) [2-[3-(5-Ethanesulfonyl-1H-pyrrolo[2,3-c]pyridin-2-ylmethyl)-4,4,4-trifluoro-3-hydroxy-1,1-dimethylbutyl]-5-methylbenzamide] | 80 nM |  |
| Cc1ccc(C(N)=O)c(C(C)(C)CC(O)(Cc2cc3cc(S(C)(=O)=O)ncc3[nH]2)C(F)(F)F)c1 (stereo not drawn) [4-Methyl-2-[4,4,4-trifluoro-3-hydroxy-3-(5-methanesulfonyl-1H-pyrrolo[2,3-c]pyridin-2-ylmethyl)-1,1-dimethylbutyl]benzamide] | 44 nM |  |
| CCS(=O)(=O)c1cc2cc(CC(O)(CC(C)(C)c3ccccc3S(C)(=O)=O)C(F)(F)F)[nH]c2cn1 (stereo not drawn) [2-(5-Ethanesulfonyl-1H-pyrrolo[2,3-c]pyridin-2-ylmethyl)-1,1,1-trifluoro-4-(2-methanesulfonylphenyl)-4-methylpentan-2-ol] | 44 nM |  |
| CC(C)(CC(O)(Cc1cc2cc(S(C)(=O)=O)ncc2[nH]1)C(F)(F)F)c1cc(Cl)ccc1S(C)(=O)=O (stereo not drawn) [4-(5-Chloro-2-methanesulfonylphenyl)-1,1,1-trifluoro-2-(5-methanesulfonyl-1H-pyrrolo[2,3-c]pyridin-2-ylmethyl)-4-methylpentan-2-ol] |  | 10 nM |
| CCS(=O)(=O)c1cc2cc(CC(O)(CC(C)(C)c3cc(C)ccc3C(N)=O)C(F)(F)F)[nH]c2cn1 (stereo not drawn) [4-Methyl-2-[4,4,4-trifluoro-3-hydroxy-3-(5-ethanesulfonyl-1H-pyrrolo[2,3-c]pyridin-2-ylmethyl)-1,1-dimethylbutyl]benzamide] | 38 nM |  |

— patent US8268859B2, “Glucocorticoid mimetics, methods of making them, pharmaceutical compositions and uses thereof” (Boehringer Ingelheim International GmbH, priority 2008, dated 2012)
